Experimental findings from ChEMBL document CHEMBL1201862, “PubChem BioAssay data set” (2004) are described below.

Structures are written as SMILES.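 Test compounds were applied to cells in 96-well plates for 48 hours at 5 doses. GI50 marks 50% less growth.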 Activity calls are given as the source filed them. Cut-off read from the data, not from the text of the source: active = GI50 up to about 1.1 µM and inactive = higher.

Common to all, as to assay: growth of human tumour cells (NCI), 48 h
Assay [1] relates to SR.
Assay [2] relates to HOP-62.
Assay [3] concerns A498.
The subject of assay [4] is KM12.
The subject of assay [5] is PC-3.
For assay [6], the system named is OVCAR-4.
The subject of assay [7] is T47D.
Assay [8] concerns DU-145.
Assay [9] has as its system Malme-3M.
The subject of assay [10] is UACC-257.
The subject of assay [11] is TK-10.
Assay [12] relates to Hs-578T.
Assay [13] deals with MOLT-4.
The test system of assay [14] is SF-539.
Assay [15] has as its system OVCAR-8.
Assay [16] concerns SK-OV-3.
The test system of assay [17] is LOX IMVI.
The test system of assay [18] is SW-620.

For the compound `Cc1cc(S(=O)(=O)Nc2nc3ccccc3nc2-c2cccc([N+](=O)[O-])c2)c(S)cc1Cl`, the GI50 in assay [1] is 20.8 µM (inactive); in assay [2], 20.2 µM (inactive); in [3], 14.4 µM (inactive); in [4], 15.6 µM (inactive); in assay [5] it was 19.7 µM (inactive); in [6] it was 27.5 µM (inactive). Further, the GI50 in [7] is 17.2 µM (inactive); in assay [8] it was 18.5 µM (inactive); in assay [9], 18.5 µM (inactive); in [10] it was 18.1 µM (inactive); in [11] it was 35.2 µM (inactive); in assay [12] it was 23.6 µM (inactive). The GI50 is 22.6 µM (inactive) in [13], 22.8 µM (inactive) in assay [14], 34.5 µM (inactive) in [15] and 16.6 µM (inactive) in assay [16].
As for `CCOC(=O)/C=C/CC(C)(C)COC(C)=O`, the GI50 in assay [1] is > 10 µM (inactive); in assay [17], 6.98 µM (inactive); in assay [4], 0.811 µM (active); in assay [5], > 10 µM (inactive); in [6] it was > 10 µM (inactive); in assay [7], > 10 µM (inactive). Moreover, the GI50 was 7.43 µM (inactive) in [8]; > 10 µM (inactive) in assay [10]; > 10 µM (inactive) in assay [18]; > 10 µM (inactive) in assay [11]; 0.406 µM (active) in assay [12]; > 10 µM (inactive) in [13]. Moreover, the GI50 in assay [16] was > 10 µM (inactive).
`O=C1NC2(CCNCC2)Oc2ccccc21`: the GI50 in [1], in assay [2], in [17], in [4], in assay [5] and in [6] was > 100 µM (inactive) each time. Moreover, the GI50 in assay [7], in [8], in assay [9], in [10], in assay [18] and in assay [11] was > 100 µM (inactive) in each case. Further, the GI50 in assay [12], in [13], in [14], in assay [15] and in [16] was > 100 µM (inactive) each time.
As for `COc1ccc2c(c1)c1c(n2CCN2CCOCC2)-c2ccccc2CC1`, the GI50 in [1] is 18.2 µM (inactive); in [2] it was 45.4 µM (inactive); in assay [3], 32.9 µM (inactive); in assay [4], 32.8 µM (inactive); in [5], 26.1 µM (inactive); in assay [6], 48.4 µM (inactive). The GI50 in [7] is 39.5 µM (inactive); in assay [8], 35.7 µM (inactive); in assay [9], 32.8 µM (inactive); in [10], 47.1 µM (inactive); in [18], 32 µM (inactive); in assay [11], 48.1 µM (inactive). The GI50 in assay [12] was 18.8 µM (inactive); in assay [13] it was 17.1 µM (inactive); in [14], 23.1 µM (inactive); in assay [15], 34.2 µM (inactive); in [16] it was > 100 µM (inactive).
For `COc1cc(Nc2cnc3cc(F)c(F)cc3n2)cc(OC)c1OC`, the GI50 in assay [2] was 91.8 µM (inactive); in assay [17], 40 µM (inactive); in [3], > 100 µM (inactive); in assay [4] it was 69.3 µM (inactive); in assay [5] it was > 100 µM (inactive); in assay [6], > 100 µM (inactive). In addition, the GI50 in assay [7], in assay [8], in [9], in assay [10], in assay [18] and in assay [11] was > 100 µM (inactive) in each case. In addition, the GI50 in assay [12] was 63.2 µM (inactive); in assay [13] it was > 100 µM (inactive); in [14], > 100 µM (inactive); in [15] it was > 100 µM (inactive); in assay [16], > 100 µM (inactive).
Regarding `CC(=O)OC(OC(C)=O)c1c2ccccc2cc2ccccc12`, the GI50 was 9.53 µM (inactive) in assay [1]; 4.35 µM (inactive) in [17]; 17.7 µM (inactive) in assay [3]; 6.93 µM (inactive) in assay [4]; 3.59 µM (inactive) in assay [5]; 17.2 µM (inactive) in assay [7]. The GI50 in assay [8] is 27.9 µM (inactive); in [10], 21 µM (inactive); in [18], 3.18 µM (inactive); in [11] it was 20.4 µM (inactive); in assay [12] it was 23.2 µM (inactive); in [13] it was 2.78 µM (inactive). Besides, the GI50 in assay [14] is 14.8 µM (inactive); in assay [15] it was 15.5 µM (inactive); in assay [16], 20.9 µM (inactive).
Consider `CCOC(=O)/C(C(=O)Nc1ccc(Cl)cc1)=C(/N)N1CCOCC1`, for which the GI50 in [2], in [17], in assay [3], in assay [4], in assay [5] and in assay [6] was > 100 µM (inactive) in each case. The GI50 in assay [7], in assay [8], in assay [9], in assay [10], in [18] and in assay [11] was > 100 µM (inactive) in each case. Further, the GI50 in [12], in [13], in assay [14], in [15] and in [16] was > 100 µM (inactive) each time.
On to `CC(=O)Nc1ccccc1S(=O)(=O)c1c(-c2c(C)c(Cl)c(C)c(Cl)c2C)noc1C`, for which the GI50 in assay [1] was 16.1 µM (inactive); in [2] it was 19.7 µM (inactive); in assay [3] it was 57 µM (inactive); in assay [4], > 100 µM (inactive); in [5], 35.1 µM (inactive); in assay [6], 14.7 µM (inactive). Besides, the GI50 was 68.1 µM (inactive) in assay [7]; 88.3 µM (inactive) in assay [8]; > 100 µM (inactive) in assay [9]; 60.7 µM (inactive) in assay [10]; > 100 µM (inactive) in assay [18]; 23.3 µM (inactive) in assay [11]. Further, the GI50 in assay [12] is 28.6 µM (inactive); in assay [13], 24.2 µM (inactive); in assay [15] it was 37 µM (inactive); in assay [16], 31.7 µM (inactive).
As to `COc1cc(Nc2cc(Cl)cc(Cl)c2)nc(N)n1`, the GI50 in assay [2] is 17.5 µM (inactive); in assay [17] it was 16.3 µM (inactive); in assay [3], 21.9 µM (inactive); in assay [4], 17.1 µM (inactive); in assay [5], 20.8 µM (inactive); in assay [6], 17.9 µM (inactive). In addition, the GI50 is 24.6 µM (inactive) in assay [7]; 18.8 µM (inactive) in [8]; 21.3 µM (inactive) in assay [9]; 19.3 µM (inactive) in assay [10]; 19.7 µM (inactive) in assay [18]; 21.6 µM (inactive) in assay [11]. Besides, the GI50 was 26.2 µM (inactive) in assay [12]; 16.6 µM (inactive) in assay [13]; 15.7 µM (inactive) in assay [14]; 18.9 µM (inactive) in assay [15]; 27.5 µM (inactive) in assay [16].
Regarding `CC(C)C(O)(C(=O)OCN1C(=O)C2C3C=CC(C2C1=O)C1C2C(=O)N(COC(=O)C(O)(C(C)C)C(C)O)C(=O)C2C31)C(C)O` (stereo not drawn), the GI50 in [1] is > 100 µM (inactive); in [2], > 100 µM (inactive); in [3], 39.7 µM (inactive); in [4], > 100 µM (inactive); in assay [5] it was > 100 µM (inactive); in assay [6], > 100 µM (inactive). Further, the GI50 in assay [7], in assay [8], in [9], in assay [18], in assay [11] and in assay [12] was > 100 µM (inactive) throughout. The GI50 in assay [13], in [14], in [15] and in assay [16] was > 100 µM (inactive) each time.
For the compound `COc1ccc(OC)c2c(C(C)=O)cccc12`, the GI50 in [1], in assay [2], in assay [3], in [4], in assay [5] and in [7] was > 100 µM (inactive) each time. The GI50 was > 100 µM (inactive) in assay [8]; > 100 µM (inactive) in assay [9]; > 100 µM (inactive) in assay [10]; > 100 µM (inactive) in assay [18]; > 100 µM (inactive) in [11]; 88.9 µM (inactive) in assay [12]. Moreover, the GI50 is 81.8 µM (inactive) in assay [13], > 100 µM (inactive) in assay [14], > 100 µM (inactive) in [15] and > 100 µM (inactive) in assay [16].
On to `COP(=O)(Cc1ccccc1)Cc1ccccc1`, for which the GI50 in assay [1], in assay [2], in assay [17], in assay [5], in assay [6] and in [7] was > 100 µM (inactive) throughout. The GI50 in assay [8], in [9], in assay [10], in assay [18], in [11] and in assay [12] was > 100 µM (inactive) throughout. Besides, the GI50 in assay [13], in [14], in assay [15] and in assay [16] was > 100 µM (inactive) throughout.
